Laboratory results reported in ChEMBL document CHEMBL3507680, “University of Dundee, Gates Library screen for HepG2 cell viability”.
Several values for one entry are separate records, joined by “and”; a condition that tells them apart may be missing. Identical values can stand only once.

Assay: Human HepG2 cell viability assay in 384 well format
Assay type: toxicity, cell-based
Parameters: dose 125 nL, time 70.5 hour; cytotoxicity at 70.5 h: concentration not given beside the values
Conditions: HepG2 cells, read-out: Inhibition

| Structure (SMILES) | cytotoxicity at 70.5 h |
| --- | --- |
| Cc1c(Cl)cc(C(=O)N(CCO)Cc2nccn2C)cc1Cl | -0.75% |
| Cc1ccc(N2CCC3(CC2)COCCN(c2nccs2)C3)nn1 | 2.35% |
| CC(C)Sc1ncccc1C(=O)NCc1ccc(O)cc1 | -2.85% |
| O=C1CC(NCc2cnc(C3CCCCC3)nc2)CN1c1ccccc1 (stereo unspecified) | 13.8% |
| CCc1cnc(N2C[C@H]3CN(Cc4csc(C)n4)C(=O)[C@H]3C2)nc1 | -8.61% |
| COc1ccc(S(=O)(=O)NCCCc2nnc3nc(C)cc(C)n23)cc1 | -7.77% |
| CCCc1nc(CNCC2CCCN2c2cccnn2)cs1 (stereo unspecified) | 11.9% |
| Cc1nc(CNC(=O)NCCc2ccc(N(C)C)cc2)cs1 | -0.758% |
| COCC(=O)NCCc1ccc(Cl)s1 | -9.93% |
| CNC(=O)c1sccc1N(C)S(=O)(=O)c1ccc(Cl)cc1 | 19.5% |
| CCc1cc(N[C@@H](CO)C(N)=O)n2nc(C)c(C)c2n1 | -2.72% |
| Cc1cc(NC(=O)N2CCCC2C(C)(C)O)c2ncccc2c1 (stereo unspecified) | -75.7% |
| Cn1cnc2cc(C(=O)NS(=O)(=O)CC3CCCC3)ccc21 | 0.122% |
| Cc1nn(C)c(N(C)C)c1CNCc1ccc(Cn2cccn2)cc1 | -4.86% |
| O=C(Cn1cc(-c2ccccc2)ncc1=O)Nc1ncc[nH]1 | -12.3% |
| Cc1noc(CN(Cc2cccc(C#N)c2)Cc2ccco2)n1 | 0.0593% |
| COc1ccccc1NC(=O)NCC(O)(c1ccccc1)C1CC1 (stereo unspecified) | 20.2% |
| O=C(NC[C@]12COC[C@H]1CN(Cc1cccnc1)C2)c1ccsc1 | 11.5% |
| CCC(C)(NCC(=O)NC(=O)NC)c1nccs1 (stereo unspecified) | -4.72% |
| O=C([C@@H]1CCO[C@@H]2CCN(Cc3ccc(F)cc3)C[C@H]21)N1CCCCO1 | -24.4% |
| CN(CC(=O)N1CCc2[nH]c3ccccc3c2C1)CC1OCCO1 | 24% |
| N#Cc1ncn(CC(=O)Cc2c(F)cccc2Cl)n1 | -5.66% |
| Cc1nc(CC(=O)NS(=O)(=O)c2cccc3cnccc23)cs1 | -110% |
| COCC(=O)N1Cc2nccn2CC(CN(C)Cc2cccnc2)C1 (stereo unspecified) | -7.06% |
| CC(C)(C)c1nccc(N2CCC(OCCN3CCCCC3)C2)n1 (stereo unspecified) | -6.69% |
| Cc1nn(C)c2nc(N(C)CC3CCN(CC(C)C)C3)sc12 (stereo unspecified) | 1.29% |
| O=C(Cn1cc(-c2ccccc2)cn1)NC(C1CC1)C1CC1 | -5.32% |

| Structure (SMILES) | cytotoxicity at 70.5 h |
| --- | --- |
| CCC(Nc1nc(C2CCCC2)nc2c1cnn2C)c1ccncc1 (stereo unspecified) | 8.01% |
| CCCc1nnc(NCCn2nc(C)c(Cl)c2C)o1 | -7.4% |
| Cc1cccc(NC(=O)[C@@H]2CCCN2CC(=O)Nc2ccccc2)n1 | -6.38% |
| CCC(=O)Nc1cc(Br)cnc1OCC(F)(F)F | -8.98% |
| Cc1ccccc1C(=O)Nc1ccc(OC2CCN(C)CC2)cc1 | -4.55% |
| OC(c1cccs1)C1CCN(c2ncccn2)CC1 (stereo unspecified) | -8.6% |
| Cn1ccnc1C(=O)N1CCC(Cn2cc(-c3ccsc3)nn2)CC1 | -8.29% |
| O=C(c1cccnc1)N1CCOC(CCCc2ccccc2)C1 (stereo unspecified) | 0.528% |
| Cc1noc(C)c1CN(C)C(=O)NC1CCCN(S(C)(=O)=O)C1 (stereo unspecified) | 0.729% |
| CN(Cc1ccc(Cl)c(F)c1)C(=O)c1ccncc1F | -6.79% |
| OC1(CN2CCCC2)COCCN(c2nccs2)C1 (stereo unspecified) | 37.8% |
| Cc1noc([C@@H](C)NCc2cccc(Cl)c2)c1C(=O)O | 2.52% |
| Cc1ncccc1OC1(C(=O)NCc2noc(C(C)C)n2)CCNCC1 | -5.62% |
| COc1cccc2c1OCC(C(=O)NCCc1nnc(C)s1)C2 (stereo unspecified) | 8.68% |
| Cc1ccc(C(=O)N2CC[C@@]3(C[C@@H](NS(C)(=O)=O)CCO3)C2)s1 | 4.89% |
| Cc1nn(C)c(C)c1C1CCCN1Cc1nc(-c2ccco2)no1 (stereo unspecified) | -19.8% |
| Cc1ccnc(NC(=O)c2ccc(-n3ncc(C#N)c3N)cc2)c1 | -6.86% |
| CCc1nccn1C1CCCN(C(=O)Cc2cn3ccsc3n2)C1 (stereo unspecified) | -11.7% |
| CN(C)c1ncccc1CNC(=O)NCc1ccc(Cl)s1 | -10.4% |
| COCCN1CCC2(CC1)CC(N1CCOCC1)c1ccc(C)cc12 (stereo unspecified) | -8.53% |
| Cc1cc(N2CCN(Cc3ccccc3)CC(O)C2)nc(N)n1 (stereo unspecified) | -2.11% |
| CC(C)NC(=O)c1cnc(Sc2nccn2C)c(Cl)c1 | 9.84% |
| O=C(NCCN1CCNC1=O)c1cc(-c2ccc(O)cc2)n[nH]1 | -10.9% |
| CN(C)C(=O)COC[C@]12COC[C@H]1CN(C1CCCC1)C2 | -8.08% |
| CC(C)(C(=O)NCc1ccccc1F)n1cc(Br)cn1 | -6.29% |
| CCNC(=O)N(C)C1CCN(Cc2ncc(C)c(OC)c2C)CC1 | -8% |
| COc1ccnc(NC(=O)c2cscn2)c1 | -10.4% |

| Structure (SMILES) | cytotoxicity at 70.5 h |
| --- | --- |
| COc1ccc(Cl)cc1CS(=O)(=O)Cc1cc(C)on1 | -5.88% |
| Cc1cn(CC(=O)NC2CCN(C(C)C)CC2)c2ccccc12 | -1.25% |
| O=C(C1CCCO1)N1CC[C@@H]2CN(Cc3ccccc3)S(=O)(=O)[C@@H]2CC1 (stereo partly specified) | -6.03% |
| O=C(Nc1ccc(F)c(F)c1)N1CCC2(CCC(=O)N(C3CC3)C2)CC1 | -5.15% |
| c1cnc(-c2nc(CN3CCC(c4ccn[nH]4)CC3)cs2)nc1 | 0.264% |
| Cn1cc(NS(=O)(=O)c2ccc(F)c(F)c2)ccc1=O | -7.99% |
| CS(=O)(=O)c1ccc(Cl)c(C(=O)NCCC2=CCCCC2)c1 | 32.9% |
| CC(C)c1cc(CNC(=O)NCc2cccc(N3CC=CC3)c2)on1 | -3.2% |
| CS(=O)(=O)CCCNC1CCCN(Cc2noc(C3CC3)n2)C1 (stereo unspecified) | -7.07% |
| NC(=O)CN(C(=O)Cc1cccc(C(F)(F)F)c1)C1CCCC1 | -2.84% |
| CCNC(=O)[C@@H]1C[C@@H](NC(=O)c2ccc(C)s2)CN1Cc1ccccn1 | -2.7% |
| COc1coc(CN2CCCC(CCc3ccc(F)cc3)C2)cc1=O (stereo unspecified) | 2.53% |
| CN1CCC2(CC1)CN(C(=O)c1cccc3cccnc13)CCN2C | -8.6% |
| CN(C)CCn1c2c(ccc1=O)CCN(Cc1cnn(C)c1)CC2 | 2.16% |
| CN1CCC(Oc2ccc(NC(=O)c3ccccc3)cc2)CC1 | -9.56% |
| CC(C)[C@H]1CN(CCCO)C[C@@H]1NC(=O)CCS(C)(=O)=O | -3.16% |
| O=C(NCc1ccc(-n2cncn2)nc1)c1cc(Cl)c2c(c1)OCCO2 | -3.48% |
| O=C(NCC1CC1)c1nc2c(o1)CN(CC1CC1)C2 | -6.5% |
| N#Cc1ccccc1N1CCCN(CC(=O)Nc2ccc(Cl)cn2)CC1 | -2.38% |
| CC1(NC(=O)Cc2csc(-c3cccc(Cl)c3)n2)CCS(=O)(=O)C1 (stereo unspecified) | -63.1% |
| CCCOc1ccc2ccccc2c1CN1CC[C@@]2(O)CCNC[C@H]2C1 | -4.34% |
| Cn1cc(CN2CCCC23CCN(C(=O)c2cccn2C)CC3)cn1 | -14.9% |
| Cc1nn(C)c(N(C)C)c1CNCc1cccc(CN(C)C(C)C)c1 | -9.1% |
| O=C(O)CC(NC(=O)CCCc1cccs1)c1ccc(F)cc1 (stereo unspecified) | -2.27% |
| Cc1ccc(-c2noc(CN3CCOC(CN(C)C)C3)n2)cc1F (stereo unspecified) | -0.0729% |
| COc1ncccc1NC(=O)c1cccc(C)n1 | -7.22% |

Same assay, conditions: hepg2, 70.5 h, 70.5 h

| Structure (SMILES) | Inhibition |
| --- | --- |
| CC1=Nc2c(c(=O)[nH]n2C2CCCC2)C(c2cccnc2)S1 (stereo unspecified) | -2.319% and 7.616% |
